Structures are written as SMILES.

What all share (type): cell-based
Test [1] has as its system STC-1 cells. In words: GLP-1 secretion in STC-1 enteroendocrine cells (ELISA). Here is the method: For the experiments summarized in FIG. 51 STC-1 cells were incubated with vehicle (DMSO), 9-PAHSA, 5-PAHSA or 9-OAHSA at the indicated concentrations or lineolic acid (100 uM) as a positive control. Media was harvested and GLP-1 was measured by ELISA.
For the experiments summarized in FIG. 52, the same protocol as described for FIG. 51 was used, except in this experiment a time course was performed. For both FIG. 51 and FIG. 52, for GLP-1 secretion STC1 cells were washed 3× with serum free culture media followed by stimulation with FAHFAs or vehicle at the indicated concentrations and timepoints. Levels of active GLP-1 were measured by ELISA.
In general terms: ELISA stands for enzyme-linked immunosorbent assay.

Test [2] concerns STC-1 cells. Kind of test: Calcium flux (FURA2) in STC-1 cells. Particulars: 100 uM, no extracellular Ca2+. The protocol: For the experiments summarized in FIG. 49 the method is: Cells grown on collagen coated glass slides were preloaded with the calcium indicator, FURA2, for 60 minutes. Buffer containing either FAHFAs or vehicle was incubated with cells for a period of 3 minutes followed by washout with buffer alone. FURA2 fluorescence, an indicator of Calcium mobilization, was monitored continuously before and during the addition of compounds and throughout the washout period. Results were analyzed with metamorph software. Calcium Flux in STC-1 (intestinal enteroendocrine) cells in the absence of extracellular calcium (calcium free buffer). Ligands were injected after 3 minutes and washed out after an additional 3 minutes. The data presented is the average fold change in Fura2 fluorescence for 10 individual STC-1 cells in the same field.
DMSO control had no effect. Top panel is linoleic acid, a positive control. Middle panel 9-PAHSA (100 uM). Bottom panel 5-PAHSA (100 μM). These experiments were done in the absence of extracellular calcium.
(Calcium flux is commonly read through the fluorescence of an indicator in the cells.)

Test [3] addresses T1, GPR120 (Homo sapiens, UniProt Q5NUL3).
T1 sequence (Q5NUL3 1-361): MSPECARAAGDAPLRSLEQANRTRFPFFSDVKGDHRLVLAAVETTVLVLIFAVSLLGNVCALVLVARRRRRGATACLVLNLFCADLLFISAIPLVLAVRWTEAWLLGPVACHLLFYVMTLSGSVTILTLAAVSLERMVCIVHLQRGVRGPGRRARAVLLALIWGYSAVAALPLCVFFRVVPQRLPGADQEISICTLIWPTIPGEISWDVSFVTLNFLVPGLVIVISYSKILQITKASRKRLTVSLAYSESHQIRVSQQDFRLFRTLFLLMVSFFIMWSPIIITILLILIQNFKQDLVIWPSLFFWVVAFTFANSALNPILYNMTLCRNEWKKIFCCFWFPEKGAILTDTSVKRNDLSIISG
Kind of test: PATHHUNTER beta-Arrestin GPCR assay. The source says:
For the experiments summarized in FIGS. 53-55, the fragment based GPCR assay from DiscoveRx (PATHHUNTER® β-Arrestin assay) was used to as per manufacturer's instructions to determine activation of specific GPCRs as indicated in FIGS. 53-55.

The subject of test [4] is STC-1 cells. Kind of test: ERK phosphorylation in STC-1 cells (immunoblot). Particulars: 15 minutes. Here is the method:
For the experiments summarized in FIG. 50, STC-1 cells were incubated with 9-PAHSA, 5-PAHSA or 9-OAHSA at the indicated concentrations. Cells were harvested and lysed and proteins were separated by SDS PAGE and transferred onto nitrocellulose filters. The phosphorylation of ERK and the amount of total ERK was determined by immunoblotting with antibodies specific for total or phosphor-ERK. DMSO was the control. For ERK phosphorylation, cells were serum deprived overnight and stimulated with FAHFAs or vehicle as indicated for 15 minutes followed by lysis in RIPA buffer and analysis by SDS-PAGE
(A western blot detects proteins with antibodies after separation by electrophoresis.)

For test [5], the system named is Ins1 cells. Kind of test: Insulin release studies in Ins1 cells. Particulars: 25 mM glucose in the media. The protocol: Ins1 cells (FIGS. 31A and 31B) or primary rat islet cells (FIG. 32A and FIG. 32B) were seeded in 24 well-plates [˜10^6 cells/well]. At confluence, cells were incubated with Low Serum [2.5%] and Low Glucose [2.5 mM] media for 12 hours. Next, cells were incubated with KRB buffer for 1 h and stimulated with glucose in the presence of 5-PAHSA (FIGS. 31a and 31B) or 9-PAHSA (FIG. 31B) for 45 min in KRB. At the end of the stimulation, 100 μL of media was collected and 10 μL was used to quantitate the amount of insulin released by ELISA. Treatment Conditions for FIGS. 31A, 31B and 32B were: • 5-PAHSA or 9-PAHSA [Stock]=20.0 mM [10.76 mg/mL Methanol] • A] 1 uM=0.3 uL/6 mL [Amount of methanol/mL=0.05 uL] • B] 5 uM=1.5 uL/6 mL [Amount of methanol/mL=0.25 uL] • C] 10 uM=3.0 uL/6 mL [Amount of methanol/mL=0.50 uL] • D] 20 uM=6.0 uL/6 mL [Amount of methanol/mL=1.00 uL]
Ins1 cells were seeded in 24 well-plates [˜10^6 cells/well] and at 80% confluence, were cultured overnight in RPMI 1640 medium containing 2.5 mM glucose and 2.5% fetal bovine serum supplemented with 100 IU/ml penicillin and […], 1 mM sodium pyruvate, 2-mercaptoethanol (50 μM) and 10 mM HEPES (pH 7.4). […] At the end of the stimulation supernatant was collected and insulin released into the medium was quantified by ELISA as per manufacturer's protocol. […]

As to `CCCCCCCCCCCCCCCC(=O)OC(CCCCCCCCCCCCC)CCCC(=O)O` (stereo not drawn) [5-PAHSA], in test [1], the GLP-1 secretion entry was “induce GLP-1 secretion”. For the same compound, in test [2], the “Ca2+ flux from intracellular stores” value is “induce Ca^2+ flux from intracellular stores”. In addition, the “activation of GPR120” value in test [3] is reported as “activate GPR120”. Besides, in test [4], the ERK phosphorylation entry was “induce ERK phosphorylation”. Further, in test [5], the insulin secretion entry is “potentiate insulin secretion”.
In the case of `CCCCCCCCCCCCCCCC(=O)OC(CCCCCCCCC)CCCCCCCC(=O)O` (stereo not drawn) [9-PAHSA, palmitoyl-9-hydroxystearic acid], in test [1], the GLP-1 secretion result is “induce GLP-1 secretion”; the “time course for GLP-1 secretion” value was “very rapid and sustained”. Further, the “Ca2+ flux from intracellular stores” value in test [2] is “induce Ca^2+ flux from intracellular stores”. For the same compound, the “activation of GPR120” value in test [3] is listed as “activate GPR120”. Besides, the “ligand for GPR120” value in test [3] (bar graph and titration curve) is given as “is a ligand for the GPCR, GPR120”. Further, the ERK phosphorylation entry in test [4] is reported as “induce ERK phosphorylation”. Also, in test [5], the insulin secretion result was “potentiate insulin secretion”.

Values taken from patent US11174216B2, “Lipids that increase insulin sensitivity and methods of using the same” (Beth Israel Deaconess Medical Center, Inc., priority 2012, dated 2021).
